Measured values as given in US20070098693A1, “Methods for enhancing engraftment of purified hematopoietic stem cells in allogenic recipients” (priority 2003, published 2007).
Several values for one entry are separate records, joined by “and”; a condition that tells them apart may be missing. Equal values may be shown once.

Key:
[1] = system: B220^+/CD11c^dim/CD11b^− p-preDC; assay: Cell death of sorted p-preDC after overnight culture (7AAD staining); type: cell-based, mice
Excerpt: (§1) mAbs and Flow cytometry. The following mAbs (all from BD Biosciences Pharmingen, San Diego, Calif., except those labeled with APC-cy-7 from eBioscience, San Diego, Calif.) were used. To sort CD8^+/TCR^− FC: anti-CD8α (53-6.7) PE-labeled, anti-TCR β chain (H57-597) and anti-TCR γδ chain (GL3) FITC-labeled. To sort B220^+/CD11c^dim/CD11b^− p-preDC: anti-CD11b (M1/70) APC-labeled, anti-CD45R/B220 (RA3-6B2) APC-Cy7-labeled, anti-CD11c (HL3) PE-labeled, and anti-TCR β chain (H57-597), anti-TCR γδ chain (GL3), anti-CD14 (rmC5-3), anti-CD19 (1D3), anti-Pan-NK cells (DX5), and anti-NK1.1 (PK136), all FITC-labeled. To sort HSC: anti-TCR β chain (H57-597), anti-TCR γδ chain (GL3), anti-Ly-6G (Gr-1), anti-CD11b, Mac1 (M1/70), anti-CD8α (53-6.7) and anti-CD45R/B220 (RA3-6B2), all FITC-labeled, anti-Ly-6A/E (Sca-1) (E13-161.7) PE-labeled and anti-c-Kit (CD117) (2B8) APC-labeled. To restain the sorted FC population: purified anti-CD16/CD32 (FcγIII/II receptors) (2.4G2), anti-CD11c (HL3), anti-CD4 (RM4-5) and anti-CD19 (1D3) all APC-labeled, anti-CD45R/B220 (RA3-6B2) PerCP-labeled, and anti-Pan-NK cells (DX5), anti-NK1.1 (PK136), anti-CD14 (rmC5-3), and anti-Ly-6G (Gr-1) FITC-labeled. To analyze the activation state: anti-CD80 (B7-1) ([…]), anti-CD86 (B7-2) ([…]), and anti-I-A^b (Aβ^b) (AF6-120.1) FITC-labeled. For PBL typing and multilineage chimerism: anti-H-2 K^b (AF6-88.5) PE or FITC-labeled, anti-H-2K^k (36-7-5) PE or FITC-labeled, anti-TCR β chain (H57-597), anti-NK1.1 (PK136), anti-Ly-6G (Gr-1), anti-CD11b, Mac1 (M1/70) and anti-CD45R/B220 (RA3-6B2) all FITC-labeled. Detection of dead cells after cell culture was determined by using a 7-Amino-actinomycin D (7-AAD) (Molecular Probes, Eugene, Oreg.) followed by FACS analysis.
CpG oligodeoxynucleotides (ODN) stimulation. […]

CD8^+/TCR^− FC [2] = assay: Activation marker expression on sorted FC after 18 h culture (FACS); type: cell-based, mice
Excerpt: as §1
(§2) CpG oligodeoxynucleotides (ODN) stimulation. Sorted p-preDC or FC were cultured for 18 hours at 10^5 cells/200 μL in 96 well round-bottom culture plates in culture medium in the presence or absence of Toll-like receptor (TLR)-9 ligand, CPG-ODN 1668 (TCCATGACGTTCCGATGCT) (SEQ ID NO. 1) (GibcoBRL Custom Primers) at 1 μM, TLR-4 ligand, LPS from Escherichia coli (Sigma, MO, USA) at 10 μg/ml, as previously described^30. CpG or LPS-treated or untreated cells were subsequently assayed for: 1) the expression of DC activation/maturation cell surface markers by FACS, 2) their survival rate by 7AAD staining, or 3) morphological appearance by Wright Giemsa staining on cytospins. The supernatant of these cultures were collected for analysis of the production of different cytokines by ELISA.

CD8^+/TCR^− FC [3] = assay: CpG ODN / LPS stimulation of sorted FC, cytokine production by ELISA / multiplex; type: cell-based, mice
Experimental: as §2
Cytokine production by ELISA. Briefly, the cell-free supernatants of 12H, 18H, or 24H cultured cells (FC or p-preDC,) with or without CpG ODN or LPS were collected and kept frozen at −80° C. The amount of cytokine produced was determined by 1) ELISA kits for mouse IFN-α (R&D system) and mouse TNF-α (Biosource International), and 2). Multiplex for MIP 1αCCL3), GM-CSF, MCP-1 (CCL2), RANTES (CCL5), IFN-γ, IL-1β, IL-2, IL-4, IL-5, IL-6, IL-10, IL-12p70, IL-9, and IL13 on 18 hour incubation supernatants from three different experiments performed by Linco Diagnostic Services (St. Charles, Mo.).

[4] = system: B220^+/CD11c^dim/CD11b^− p-preDC; assay: Activation marker expression on sorted p-preDC after 18 h culture (FACS); type: cell-based, mice
Excerpt: as §1, §2

CD8^+/TCR^− FC [5] = assay: Cell death of sorted FC after overnight culture (7AAD staining); type: cell-based, mice
Excerpt: as §1, §2

p-preDC from cultured BM = assay: Culture of BMC with FL for 10 days, expansion of p-preDC; type: cell-based, mice; details: 10 days in culture with FL, n=4
Experimental: (§3) Culture of BMC with FL. BMC were resuspended at 10^6 cells/ml in culture medium consisting of RPMI 1640 (Gibco), 10% FBS (Gibco), 1 mM Sodium pyruvate (Gibco), 10 mM Hepes (Gibco), 2 mM L-Glutamine (Gibco), Penicillin 100 U/mL, 100 μg/mL Streptomycin, (Gibco), and 10^−5 M 2-mercaptoethanol (Sigma), supplemented with human FL (100 ng/ml, generous gift from Amgen, Seattle, Wash.). Every 5 days of culture, half of the medium was replaced by fresh cytokine-supplemented culture medium according to a protocol previously described^30.
(§4) Cell sorting. HSC, FC, and p-preDC were sorted as previously described^9,30,49. HSC were sorted for Sca-1^+c-Kit^+Lin^− expression, FC were sorted for CD8α^+/TCRαβ^−/TCRγδ^− expression, and p-preDC were sorted for CD11c^dim/CD11b^−/B220^+ expression. Briefly, BMC were incubated with Abs on ice for 30 minutes, cells were washed twice in the CSM, filtered, and resuspended to a final concentration of 2.5×10^6 cells/mL in the CSM for cell sorting. The isolation of the cell populations was performed on FACSVantage Flow Cytometers (Becton Dickinson). The populations of interest were isolated from the live lymphoid gate, and after reanalysis, only cells with a purity of >94% were used.

FC from cultured BM = assay: Culture of BMC with FL for 10 days, expansion of FC; type: cell-based, mice; details: 10 days in culture with FL, n=8
Experimental: as §3, §4

FL-derived p-preDC = assay: Cytokine production by sorted FL-derived p-preDC (ELISA); type: cell-based, mice; details: p-preDC from FL bone marrow culture, overnight culture
Experimental: as §3
as §2, with “The supernatant of these cultures were collected for analysis of the production of different cytokines by ELISA.” left out
Cytokine production by ELISA. […] The amount of cytokine produced was determined by 1) ELISA kits for mouse IFN-α (R&D system) and mouse TNF-α (Biosource International), and 2). […]

FC population in PB = assay: Flt3-ligand treatment of mice, subtypes in the mobilized FC population in PB; type: in vivo, B10.BR mice
Experimental: Flt3-ligand treatment of mice. Recombinant human Flt-3 Ligand (FL, kindly provided by Amgen, Seattle, Wash.) was diluted in sterile, filtered, endotoxin-free water at a concentration of 100 μg/ml. Donor B10.BR mice were subcutaneously injected with 10 μg of FL daily for 10 days. B10.BR control mice were injected with saline only. At the end of the treatment, peripheral blood was harvested and collected into heparinized tubes.
Phenotypic analysis of sorted FC. Sorted FC isolated from fresh BMC or FL-mobilized peripheral blood, with a purity ranging from 94 to 98%, were incubated with Fc receptor block (anti-CD16/CD32) before staining with different lineage specific markers, including anti-CD4, CD11c, B220, NK1.1, DX5, CD14, Gr1, and CD19. During reanalysis of sorted FC, less than 1% of contaminating T cells (TCRαβ FITC and TCRγδFITC) were detected, which therefore allowed the use of FITC-conjugated specific markers for further analysis. To validate the specificity of staining, various conjugates of the same antibody were used, including CD11c, CD4 and CD19 conjugated to FITC and APC, as well as B220 conjugated with PerCP, APC, or FITC (not shown). To analyze the subtypes of DC in the sorted FC population, sorted FC were blocked and stained with CD11b FITC, CD11c APC and B220 PerCP mAbs to determine the presence of myeloid pre-DC (CD11c^+/B220^−/CD11b^+), p-preDC (CD11c^dim/B220^+/CD11b^−), the common precursor population for DC (CD11c^+/B220^+/CD11b^+) or mature lymphoid DC (CD8α^+/CD11c^+/CD11b^−/B220^−). The cells were washed twice in CSM, and analyzed on a FACS Calibur using Cell Quest Software (Becton Dickinson, Mountainview, Calif.).

[6] = FL-derived FC, CpG ODN exposure overnight
[7] = fresh BM FC, overnight exposure to CpG ODN, n=4
[8] = CpG ODN stimulation, 18 hours, multiplex
[9] = FL-derived FC and FL-derived p-preDC (FIG. 4c), CpG-ODN overnight
[10] = after culture with medium or CpG stimulation
[11] = FL-derived p-preDC, CpG ODN exposure overnight
[12] = fresh BM p-preDC, overnight exposure to CpG ODN, n=2
[13] = fresh FC, overnight culture with CpG
[14] = p-preDC from 10 day FL-cultured BMC versus fresh p-preDC
[15] = mice treated with FL for 10 days (data not shown)
[16] = mice treated with FL for 10 days, sorted FC from PB

## CpG ODN: Toll-like receptor (TLR)-9 ligand, CPG-ODN 1668 (TCCATGACGTTCCGATGCT) (SEQ ID NO. 1) (DNA, backbone and methylation of C not given here)
[1]; CpG exposure (data not shown)
  rescue of FL-derived p-preDC from death: partially rescued
[1]; fresh p-preDC, overnight culture with CpG
  mortality of p-preDC (dead): 35±0.3%
CD8^+/TCR^− FC [2]; [6]
  CD80 expression on FL-derived FC after CpG ODN: 48%
  CD86 expression on FL-derived FC after CpG ODN: 77%
  Class II expression on FL-derived FC after CpG ODN: 73%
CD8^+/TCR^− FC [2]; [7]
  CD80 expression on FC: 23.5±8%
  CD86 expression on FC: 86±12%
  Class II expression on FC: 74±6.5%
CD8^+/TCR^− FC [3]; [8]
  IL-6 production by FC: moderate amounts
  IL-12p70 production by FC: low levels
  Mip1-α/CCL3 production by FC: high amounts
  RANTES/CCL5 production by FC: moderate amounts
CD8^+/TCR^− FC [3]; CpG ODN stimulation, 24 hours, ELISA
  TNF-α production by FC: large amounts
CD8^+/TCR^− FC [3]; [9]
  IFN-α secretion of FL-derived cells after CpG-ODN: increased further
  IL-12p70 production of FL-derived cells after CpG-ODN: increased further
  TNF-α production of FL-derived cells after CpG-ODN: increased further
CD8^+/TCR^− FC [3]; [10]
  GM-CSF production by FC: no
  IFN-γ production by FC: low amounts
  IL9 production by FC: low amounts
  IL-1β production by FC: no
  IL-2 production by FC: no
  IL-4 production by FC: no
  IL-5 production by FC: no
  IL-10 production by FC: low amounts
  IL-13 production by FC: no
  MCP-1/CCL2 production by FC: low amounts
CD8^+/TCR^− FC [3]; sorted bone marrow FC cultured with stimulus, ELISA
  IFN-α production by FC: levels similar to those produced by p-preDC
[4]; [11]
  CD80 expression on FL-derived p-preDC after CpG ODN: 63%
  CD86 expression on FL-derived p-preDC after CpG ODN: 87%
  Class II expression on FL-derived p-preDC after CpG ODN: 88%
[4]; [12]
  CD80 expression on p-preDC: 12.5±1%
  CD86 expression on p-preDC: 85±13%
  Class II expression on p-preDC: 39±4%
CD8^+/TCR^− FC [5]; FL-derived FC, CpG ODN overnight versus medium
  decrease of mortality of FL-treated FC: 10-15%
CD8^+/TCR^− FC [5]; [13]
  decrease of FC mortality compared to media alone: 10%
  mortality of FC (dead cells): 43.5±3.5%

B1: FL: Recombinant human Flt-3 Ligand (FL, kindly provided by Amgen, Seattle, Wash.) (protein, UniProt P49771 27-235, looked up)
Fms-related tyrosine kinase 3 …: TQDCSFQHSPISSDFAVKIRELSDYLLQDYPVTVASNLQDEELCGGLWRLVLAQRWMERLKTVAGSKMQGLLERVNTEIHFVTKCAFQPPPSCLRFVQTNISRLLQETSEQLVALKPWITRQNFSRCLELQCQPDSSTLPPPWSPRPLEATAPTAPQPPLLLLLLLPVGLLLLAAAWCLHWQRTRRRTPRPGEQVPPVPSPQDLLLVEH
p-preDC from cultured BM
  increase in FL-p-preDC from cultured BM: 17 fold
[1]; versus fresh cells (data not shown)
  death of FL-derived p-preDC after overnight culture: more sensitive to death
FC from cultured BM
  increase in FL-derived FC from cultured BM: 7 fold
CD8^+/TCR^− FC [2]; FC from 10 day FL-cultured BMC, overnight culture, medium, versus 11% of fresh FC
  CD80 expression on FL-derived FC: 47%
CD8^+/TCR^− FC [2]; FC from 10 day FL-cultured BMC, overnight culture, medium, versus 17% of fresh FC
  CD86 expression on FL-derived FC: 51%
CD8^+/TCR^− FC [2]; FC from 10 day FL-cultured BMC, overnight culture, medium, versus 18% of fresh FC
  Class II expression on FL-derived FC: 40%
FL-derived p-preDC
  IFN-α production by FL-derived p-preDC: also produced IFN-α
CD8^+/TCR^− FC [3]; FC from 10 day FL-cultured BM, overnight culture, medium
  IFN-α production by FL-derived FC: significant amounts of IFN-α
[4]; [14]
  CD80 level on FL-derived p-preDC: upregulated
  CD86 level on FL-derived p-preDC: upregulated
  Class II level on FL-derived p-preDC: upregulated
CD8^+/TCR^− FC [5]; FC from 10 day FL-cultured BM, medium, n=3, versus 53.6% fresh cells
  death of FL-derived FC after overnight culture: 71%
FC population in PB; FL-treatment of mice
  expansion of FC in PB: significantly expands
FC population in PB; [15]
  FL-FC in the PB expressing CD14: none
  FL-FC in the PB expressing CD19: none
FC population in PB; [16]
  CD11c^bright population (mature DC) in FL-FC: 20%
  CD11c^dim population (p-preDC phenotype) in FL-FC: 60% and 60-65%
  FL-FC in the PB expressing CD11c: 85-90%
  FL-FC in the PB expressing NK1.1: 5-7%
